Results as given in patent US5719145A, “Amidine derivatives and platelet aggregation inhibitor containing the same” (Mitsui Toatsu Chemicals, Inc., priority 1996, dated 1998).
pIC50: −log10 of the molar value. Counter-ions that a name gives are not always drawn.

Key:
[1] = test system: guinea pig platelets (platelet-rich plasma); assay: Inhibition against platelet aggregation ability after oral administration in guinea pig; assay type: in vivo; settings: Cavia porcellus, 1 h, oral administration: 37 μmol/kg, blood collected after an hour, ADP 5 μM, read-out: Aggregation inhibiting rate (%)
Procedure: Experiment for inhibition against platelet aggregation ability after oral administration The specimen drug was dissolved or suspended at a concentration of 18.5 μmol/ml in a physiological saline containing 0.5% of Tween 80. […] A physiological saline containing 0.5% of Tween 80 was similarly administered as a control. […] The blood mixture was centrifuged at 800 r.p.m. for 20 minutes at room temperature to obtain PRP in the upper layer. The lower layer was further centrifuged at 3000 r.p.m. for 15 minutes to obtain PPP in upper layer. […] Platelet aggregation ability was measured according to the method for measuring in vitro platelet aggregation. […] HEMA TRACER 1 (manufactured by NKK Co.). After incubation of PRP at 37° C. for 2 minutes, a physiological saline (30 μl) was added. […] An inhibiting ratio was obtained by comparing the maximum aggregation of the specimen drug group with that of control.

[2] = test system: guinea pig platelets (platelet-rich plasma); assay: In vitro inhibition of platelet aggregation in guinea pig (ADP-induced, PRP); assay type: cell-based; settings: Cavia porcellus, ADP final concentration 5 μM, read-out: Platelet aggregation inhibitory activity in guinea pig, IC50
Procedure: In vitro experiment of platelet aggregation inhibition
1. Inhibition of platelet aggregation in Guinea pig
Blood of male guinea pig was collected with an injection syringe which contains 3.8 % sodium citrate as an anticoagulant in a ratio of 1 volume to 9 volumes of the blood. Successively, the collected blood mixture was subjected to centrifugation at 120×g for 15 minutes at room temperature to obtain platelet-rich plasma (PRP). An aliquot of PRP was further subjected to centrifugation at 1,200×g for 15 minutes to obtain platelet-poor plasma (PPP). Numbers of the platelet in PRP were measured with an automatic platelet counter: Sysmex PL-100 (manufactured by Toa Iyodenshi Co.) and PRP was diluted with PPP so as to adjust a platelet concentration to be about 300,000 particles/ μl. Platelet aggregation was measured by the following procedure with a 6 channel aggregometer: HEMA TRACER 1 (manufactured by NKK Co.).
After incubation of 240 μl of PRP at 37° C. for 2 minutes, 30 μl of the solvent of specimen as a control or of the specimen in various concentrations was added to PRP. Further 2 minutes later, 30 μl of adenosine diphosphate (final concentration: 5μM) was added to induce platelet aggregation. An inhibition percentage was obtained by comparing the maximum aggregation of the specimen drug group with that of control. […]

SMILES: C#CCNC(=N)c1ccc(C(=O)Nc2ccc3c(c2)CC(CC(=O)OCC)CC3)cc1 (single isomer, unassigned) [Example 45, ethyl (-)-7-[[4-(N^2-propargylamidino)benzoyl]amino]-1,2,3,4-tetrahydronaphthalene-2-acetate hydrochloride]
- inhibition at 37 µmol/kg [1]: > 90%

SMILES: CCOC(=O)CC1CCc2ccc(NC(=O)c3ccc(C(=N)N4CCOCC4)cc3)cc2C1 (single isomer, unassigned) [Example 47, ethyl (-)-7-[[4-(morpholinoiminomethyl)benzoyl]amino]-1,2,3,4-tetrahydronaphthalene-2-acetate hydrochloride]
- inhibition at 37 µmol/kg [1]: > 90%

SMILES: C#CCNC(=N)c1ccc(C(=O)Nc2ccc3c(c2)CC(CC(=O)OCC)CO3)cc1 (single isomer, unassigned) [Example 49, ethyl (-)-6-[[4-(N^2-propargylamidino)benzoyl]amino]chroman-3-acetate hydrochloride]
- inhibition at 37 µmol/kg [1]: > 90%

SMILES: CCOC(=O)CC1COc2ccc(NC(=O)c3ccc(C(=N)N4CCOCC4)cc3)cc2C1 (single isomer, unassigned) [Example 51, hydrochloride]
- inhibition at 37 µmol/kg [1]: > 90%

SMILES: CCOC(=O)CC1CCc2ccc(NC(=O)c3ccc(C(=N)N4CCOCC4)cc3)cc2C1 (centres unmarked) [Example 1, ethyl 7-[[4-(morpholinoiminomethyl)benzoyl]amino]-1,2,3,4-tetrahydronaphthalene-2-acetate hydrochloride]
- pIC50 [2]: 6.74
- inhibition at 37 µmol/kg [1]: > 90%

SMILES: CCOC(=O)CC1COc2ccc(NC(=O)c3ccc(C(=N)N4CCOCC4)cc3)cc2C1 (centres unmarked) [Example 4, ethyl 6-[[4-(morpholinoiminomethyl)benzoyl]amino]chroman-3-acetate hydrochloride]
- pIC50 [2]: 6.92
- inhibition at 37 µmol/kg [1]: > 90%

SMILES: CCOC(=O)CC1COc2cc(NC(=O)c3ccc(C(=N)N4CCOCC4)cc3)ccc2C1 (centres unmarked) [Example 8, ethyl 7-[[4-(morpholinoiminomethyl)benzoyl]amino]chroman-3-acetate hydrochloride]
- inhibition at 37 µmol/kg [1]: > 90%

SMILES: CCOC(=O)CC1CCc2ccc(NC(=O)c3ccc(C(=N)N4CCSCC4)cc3)cc2C1 (centres unmarked) [Example 12, ethyl 7-[[4-(thiomorpholinoiminomethyl)benzoyl]amino]-1,2,3,4-tetrahydronaphthalene-2-acetate hydrochloride]
- inhibition at 37 µmol/kg [1]: > 90%

SMILES: CCOC(=O)CC1CCc2ccc(NC(=O)c3ccc(C(=N)N4CCN(C)CC4)cc3)cc2C1 (centres unmarked) [Example 14, ethyl 7-[[4-(4-methylpiperazinoiminomethyl)benzoyl]amino]-1,2,3,4-tetrahydronaphthalene-2-acetate dihydrochloride]
- pIC50 [2]: 7.18
- inhibition at 37 µmol/kg [1]: > 90%

SMILES: CCOC(=O)CC1CCc2ccc(NC(=O)c3ccc(C(=N)N4CCCCC4)cc3)cc2C1 (centres unmarked) [Example 17, ethyl 7-[[4-(piperidinoiminomethyl)benzoyl]amino]-1,2,3,4-tetrahydronaphthalene-2-acetate hydrochloride]
- pIC50 [2]: 6.57
- inhibition at 37 µmol/kg [1]: > 90%

SMILES: CCOC(=O)CC1CCc2ccc(NC(=O)c3ccc(C(=N)N4CCCC4)cc3)cc2C1 (centres unmarked) [Example 21, ethyl 7-[[4-(pyrrolidinoiminomethyl)benzoyl]amino]-1,2,3,4-tetrahydronaphthalene-2-acetate hydrochloride]
- pIC50 [2]: 7.03
- inhibition at 37 µmol/kg [1]: > 90%

SMILES: CCOC(=O)CC1CCc2ccc(NC(=O)c3ccc(C(=N)N4CCCCCC4)cc3)cc2C1 (centres unmarked) [Example 22, ethyl 7-[[4-(homopiperidinoiminomethyl)benzoyl]amino]-1,2,3,4-tetrahydronaphthalene-2-acetate hydrochloride]
- pIC50 [2]: 6.60
- inhibition at 37 µmol/kg [1]: > 90%

SMILES: C#CCN=C(N)c1ccc(C(=O)Nc2ccc3c(c2)CC(CC(=O)OCC)CC3)cc1 (centres unmarked) [Example 24, ethyl 7-[[4-(N^2-propargylamidino)benzoyl]amino]-1,2,3,4-tetrahydronaphthalene-2-acetate]
- inhibition at 37 µmol/kg [1]: > 90%

SMILES: C#CCNC(=N)c1ccc(C(=O)Nc2ccc3c(c2)CC(CC(=O)OCC)CO3)cc1 (centres unmarked) [Example 26, ethyl 6-[[4-(N^2-propargylamidino)benzoyl]amino]chroman-3-acetate hydrochloride]
- pIC50 [2]: 6.72
- inhibition at 37 µmol/kg [1]: > 90%

SMILES: CCOC(=O)CC1CCc2ccc(NC(=O)c3ccc(C(=N)NCc4ccco4)cc3)cc2C1 (centres unmarked) [Example 29, ethyl 7-[[4-[N^2-(2-furfuryl)amidino]benzoyl]amino]-1,2,3,4-tetrahydronaphthalene-2-acetate hydrochloride]
- inhibition at 37 µmol/kg [1]: > 90%

SMILES: CCOC(=O)CC1COc2ccc(NC(=O)c3ccc(C(=N)NCc4ccco4)cc3)cc2C1 (centres unmarked) [Example 31, ethyl 6-[[4-[N^2-(2-furfuryl)amidino]benzoyl]amino]chroman-3-acetate hydrochloride]
- pIC50 [2]: 6.85
- inhibition at 37 µmol/kg [1]: > 90%

SMILES: C#CCN(C)C(=N)c1ccc(C(=O)Nc2ccc3c(c2)CC(CC(=O)OCC)CC3)cc1 (centres unmarked) [Example 34, ethyl 7-[[4-(N^1-methyl-N^2-propargylamidino)benzoyl]amino]-1,2,3,4-tetrahydronaphthalene-2-acetate hydrochloride]
- inhibition at 37 µmol/kg [1]: > 90%

SMILES: CCOC(=O)CC1CCc2ccc(NC(=O)c3ccc(C(=N)NCc4ccccn4)cc3)cc2C1 (centres unmarked) [Example 38, ethyl 7-[[4-[N^2-(2-picolyl)amidino]benzoyl]amino]-1,2,3,4-tetrahydronaphthalene-2-acetatedihydrochloride]
- inhibition at 37 µmol/kg [1]: > 90%

SMILES: N=C(NCc1ccccn1)c1ccc(C(=O)Nc2ccc3c(c2)CC(CC(=O)O)CC3)cc1 (centres unmarked) [Example 39, 7-[[4-[N^2-(2-picolyl)amidino]benzoyl]amino]-1,2,3,4-tetrahydronaphthalene-2-acetic acid dihydrochloride]
- pIC50 [2]: 6.85

SMILES: CCOC(=O)CC1CCc2ccc(NC(=O)c3ccc(C(=N)NCc4ccncc4)cc3)cc2C1 (centres unmarked) [Example 41, ethyl 7-[[4-[N^2-(4-picolyl)amidino]benzoyl]amino]-1,2,3,4-tetrahydronaphthalene-2-acetatedihydrochloride]
- pIC50 [2]: 6.92

SMILES: CCOC(=O)CC1CCc2ccc(NC(=O)c3ccc(C(=N)NCCc4ccncc4)cc3)cc2C1 (centres unmarked) [Example 42, ethyl 7-[[4-[N^2-[2-(4-pyridyl)ethyl]amidino]benzoyl]amino]-1,2,3,4-tetrahydronaphthalene-2-acetate dihydrochloride]
- pIC50 [2]: 6.89

SMILES: CCOC(=O)CC1CCc2ccc(NC(=O)c3ccc(C(=N)N4CCN(c5ccccc5)CC4)cc3)cc2C1 (centres unmarked) [Example 43, dihydrochloride]
- pIC50 [2]: 6.85

SMILES: CCOC(=O)CC1CCc2ccc(NC(=O)c3ccc(C(=N)N4CCN(c5ccccn5)CC4)cc3)cc2C1 (centres unmarked) [Example 44, trihydrochloride]
- pIC50 [2]: 7.06

SMILES: N=C(N)c1ccc(C(=O)Nc2ccc3c(c2)CC(CC(=O)O)CC3)cc1 (centres unmarked) [Ref. Example 2, 7-[(4-amidinobenzoyl)amino]-1,2,3,4-tetrahydronaphthalene-2-acetic acid hydrochloride, reference compound]
- pIC50 [2]: 6.43

SMILES: N=C(N)c1ccc(C(=O)Nc2ccc3c(c2)CN(CC(=O)O)CC3)cc1 [Ref. Example 6, 7-[(4-amidinobenzoyl)amino]-1,2,3,4-tetrahydroisoquinoline-2-acetic acid dihydrochloride, reference compound]
- pIC50 [2]: 5.18

SMILES: CCOC(=O)CC1CCc2ccc(NC(=O)c3ccc(C(=N)N)cc3)cc2C1 (centres unmarked) [Reference Example 1, ethyl 7-[(4-amidinobenzoyl)amino]-1,2,3,4-tetrahydronaphthalene-2-acetate hydrochloride, reference compound]
- inhibition at 37 µmol/kg [1]: 41%

SMILES: CCOC(=O)CC1COc2ccc(NC(=O)c3ccc(C(=N)N)cc3)cc2C1 (centres unmarked) [Reference Example 3, ethyl 6-[(4-amidinobenzoyl)amino]chroman-3-acetate hydrochloride, reference compound]
- inhibition at 37 µmol/kg [1]: 39%

SMILES: CCOC(=O)CC1COc2cc(NC(=O)c3ccc(C(=N)N)cc3)ccc2C1 (centres unmarked) [Reference Example 7, ethyl 7-[(4-amidinobenzoyl)amino]chroman-3-acetate hydrochloride, reference compound]
- inhibition at 37 µmol/kg [1]: 24%

SMILES: CCCCOC(=O)N=C(N)c1ccc(C(=O)Nc2ccc3c(c2)CC(CC(=O)OCC)CC3)cc1 (centres unmarked) [Reference Example 10, ethyl 7-[[4-[N^1-(n-butoxycarbonyl)amidino]benzoyl]amino]-1,2,3,4-tetrahydronaphthalene-2-acetate, reference compound]
- inhibition at 37 µmol/kg [1]: 59%

SMILES: CCOC(=O)CN1CCc2ccc(NC(=O)c3ccc(C(=N)N)cc3)cc2C1 [Reference example 5, ethyl 7-[(4-amidinobenzoyl)amino]-1,2,3,4-tetrahydroisoquinoline-2-acetate dihydrochloride, reference compound]
- inhibition at 37 µmol/kg [1]: 10%
